This experiment concerns HT29 cells. In words: Inhibition of cell necrosis (CCK8 method), induced programmed necrosis of HT29 cells. Conditions: Homo sapiens, HT-29; rescue from necrosis induced by TNF-α 20 ng/mL, AT-406 1 μM, Z-VAD-FMK 20 μM; 16-20 hours; CCK-8, OD 450 nm. Format: cell-based. How it is done: Assay Example 2. Assay Method for Compounds Inhibiting Cell Necrosis (CCK8 Method)
In this assay example 2, under the condition of inducing programmed cell necrosis, different concentrations of the test compounds were added to test the IC50 of the rescue effect of the test compounds on the programmed necrosis.
• Compounds: Dissolved in DMSO to make a 10 mM solution; • TNF-α: The initial concentration was 100 μg/mL; • Z-VAD-FMK: Dissolved in DMSO to make a 10 mM solution; • AT-406: Dissolved in DMSO to make a 10 mM solution. I. Experimental Steps • 1) Compound dilution: All test compounds were dissolved in DMSO to prepare a 10 mM stock solution, and the first concentration gradient dilution of the test compounds was completed in DMSO. The gradient dilution factor was 4 times and 9 concentration gradients were made; A 40-fold overall dilution of all compounds was completed in the cell culture medium, and the resulting compound was 10× compound, which will be added to the wells of the 96-well plate containing cells, so that the final cell culture medium was 1× the designed final concentration. The general drug design is 9 concentration gradients, of which the highest final concentration is 25000 nM, the lowest concentration after 4-fold dilution of 9 concentrations is 0.38 nM, and the final concentration of DMSO in all wells is 0.25%. The compound dilution process is shown in FIG. 3. • 2) HT 29 cells in good growth condition were selected, trypsinized, the cells was collected by centrifugation, resuspended in McCOY's 5A complete medium (containing 10% FBS) and counted, and the number of cells and survival rate were recorded. • 3) Cells were inoculated to the 60 wells in the middle of the 96-well culture plate at a density of 12000 cells/80 μL/well, surrounding wells were filled with sterile water, and incubated overnight. • 4) 10 μL of the 10× compound diluted with the medium was added to the assay wells, 10 μL of McCOY's 5A complete medium containing 2.5% DMSO was added to the inducer-free wells and the control wells, mixed and shaked, and incubated for 30 minutes. • 5) Then 10 μL of inducer mixture (TNF-α, AT-406, Z-VAD-FMK with the final concentration of 20 ng/mL, 1 μM, 20 μM) was added into the assay wells and control wells. 10 μL McCOY's 5A complete medium was added to wells without inducer. Cells were cultured in an incubator with 5% CO2, at 37° C. • 6) After culturing for 16-20 hours, 10 μL of CCK-8 reagent was added to each well, and incubated for about 2 hours; • 7) The OD value was read at 450 nm on the multi-function plate reader. • 8) Data processing: Inhibition rate of necrosis (%)=100*(X−B)/(A−B) • A: The OD values of the wells without inducer (containing cells, CCK-8, without compound and inducer); • […]: OD values of assay wells (containing cells, CCK-8, compound, inducer); • B: OD values of control wells (containing cells, CCK-8, inducer, without compound). Then the value were imported into Graphpad Prism5 software for curve fitting and the IC50 values were calculated.
`CCc1cc(-c2ccnc(NC(=O)c3nnc(Cc4ccccc4)[nH]3)c2)c(OC)cn1` [Example 63, 5-benzyl-N-(2′-ethyl-5′-methoxy-[4,4′-bipyridin]-2-yl)-4H-1,2,4-triazole-3-carboxamide] came in with an IC50 of 1000 to 10000 nM.

Molecule `Cc1ccc(OCCOC(C)(C)C)cc1-c1ccnc(NC(=O)c2nnc(Cc3ccccc3)[nH]2)c1` [Example 64, 5-benzyl-N-(4-(5-(2-(tert-butoxy)ethoxy)-2-methylphenyl)pyridin-2-yl)-4H-1,2,4-triazole-3-carboxamide] returned an IC50 of at most 100 nM.

Molecule `Cc1ccc(OC2CCOCC2)cc1-c1ccnc(NC(=O)c2nnc(Cc3ccccc3)[nH]2)c1` [Example 65, 5-benzyl-N-(4-(2-methyl-5-((tetrahydro-2H-pyran-4-yl)oxy)phenyl)pyridin-2-yl)-4H-1,2,4-triazole-3-carboxamide] yielded an IC50 of at most 100 nM.

The molecule `Cc1ccc(OCC2COC2)cc1-c1ccnc(NC(=O)c2nnc(Cc3ccccc3)[nH]2)c1` [Example 66, 5-benzyl-N-(4-(2-methyl-5-(oxetan-3-ylmethoxy)phenyl)pyridin-2-yl)-4H-1,2,4-triazole-3-carboxamide] registered an IC50 of at most 100 nM.

In turn, `Cc1ccc(OCC2CCOCC2)cc1-c1ccnc(NC(=O)c2nnc(Cc3ccccc3)[nH]2)c1` [Example 67, 5-benzyl-N-(4-(2-methyl-5-((tetrahydro-2H-pyran-4-yl)methoxy)phenyl)pyridin-2-yl)-4H-1,2,4-triazole-3-carboxamide] showed an IC50 of at most 100 nM.

In turn, `Cc1ccc(OCCF)cc1-c1ccnc(NC(=O)c2nnc(Cc3ccccc3)[nH]2)c1` [Example 68, 5-benzyl-N-(4-(5-(2-fluoroethoxy)-2-methylphenyl)pyridin-2-yl)-4H-1,2,4-triazole-3-carboxamide] gave an IC50 of 100 to 1000 nM.

Take `Cc1ccc(OCCC2CC2)cc1-c1ccnc(NC(=O)c2nnc(Cc3ccccc3)[nH]2)c1` [Example 69, 5-benzyl-N-(4-(5-(2-cyclopropylethoxy)-2-methylphenyl)pyridin-2-yl)-4H-1,2,4-triazole-3-carboxamide]: the IC50 is at most 100 nM.

`Cc1ccc(OCCOCC(C)C)cc1-c1ccnc(NC(=O)c2nnc(Cc3ccccc3)[nH]2)c1` [Example 70, 5-benzyl-N-(4-(5-(2-isobutoxyethoxy)-2-methylphenyl)pyridin-2-yl)-4H-1,2,4-triazole-3-carboxamide] yielded an IC50 of at most 100 nM.

`Cc1ccc(OCCN2CCCC2=O)cc1-c1ccnc(NC(=O)c2nnc(Cc3ccccc3)[nH]2)c1` [Example 71, 5-benzyl-N-(4-(2-methyl-5-(2-(2-oxopyrrolidin-1-yl)ethoxy)phenyl)pyridin-2-yl)-4H-1,2,4-triazole-3-carboxamide] came in with an IC50 of at most 100 nM.

Consider `CSCCCOc1ccc(C)c(-c2ccnc(NC(=O)c3nnc(Cc4ccccc4)[nH]3)c2)c1` [Example 72, 5-benzyl-N-(4-(2-methyl-5-(3-(methylthio)propoxy)phenyl)pyridin-2-yl)-4H-1,2,4-triazole-3-carboxamide], for which the IC50 is at most 100 nM.

Molecule `Cc1ccc(OCCCS(C)(=O)=O)cc1-c1ccnc(NC(=O)c2nnc(Cc3ccccc3)[nH]2)c1` [Example 73, 5-benzyl-N-(4-(2-methyl-5-(3-(methylsulfonyl)propoxy)phenyl)pyridin-2-yl)-4H-1,2,4-triazole-3-carboxamide] had an IC50 of at most 100 nM.

Molecule `CC(C)(C)OCCOc1ccc(C#N)c(-c2ccnc(NC(=O)c3nnc(Cc4ccccc4)[nH]3)c2)c1` [Example 74] had an IC50 of 100 to 1000 nM.

The molecule `Cc1ccc(OCCOC(C)(C)C)cc1-c1ccnc(NC(=O)c2nnc(CC3CCCC3)[nH]2)c1` [Example 75, N-(4-(5-(2-(tert-butoxy)ethoxy)-2-methylphenyl)pyridin-2-yl)-5-(cyclopentylmethyl)-4H-1,2,4-triazole-3-carboxamide] displayed an IC50 of at most 100 nM.

The molecule `Cc1ccc(OCCOC(C)(C)C)cc1-c1ccnc(NC(=O)c2nnc(CC3CCCC3)o2)c1` [Example 76] returned an IC50 above 10000 nM.

Molecule `Cc1ccc(OCCOC(C)(C)C)cc1-c1ccnc(NC(=O)c2nnc(CC3CCCCC3)[nH]2)c1` [Example 77, N-(4-(5-(2-(tert-butoxy)ethoxy)-2-methylphenyl)pyridin-2-yl)-5-(cyclohexylmethyl)-4H-1,2,4-triazole-3-carboxamide] displayed an IC50 of at most 100 nM.

Regarding `C=Cc1ccc(OCCOC(C)(C)C)cc1-c1ccnc(NC(=O)c2nnc(Cc3ccccc3)[nH]2)c1` [Example 78, 5-benzyl-N-(4-(5-(2-(tert-butoxy)ethoxy)-2-vinylphenyl)pyridin-2-yl)-4H-1,2,4-triazole-3-carboxamide], the IC50 was at most 100 nM.

Consider `Cc1ccc(OCC2CCOCC2)cc1-c1ccnc(NC(=O)c2nnc(CC3CCCC3)[nH]2)c1` [Example 79, 5-(cyclopentylmethyl)-N-(4-(2-methyl-5-((tetrahydro-2H-pyran-4-yl)methoxy)phenyl)pyridin-2-yl)-4H-1,2,4-triazole-3-carboxamide], for which the IC50 is at most 100 nM.

In the case of `Cc1ccc(OCC2CCOCC2)cc1-c1ccnc(NC(=O)c2nnc(CC3CCCCC3)[nH]2)c1` [Example 80, 5-(cyclohexylmethyl)-N-(4-(2-methyl-5-((tetrahydro-2H-pyran-4-yl)methoxy)phenyl)pyridin-2-yl)-4H-1,2,4-triazole-3-carboxamide], the IC50 is at most 100 nM.

The molecule `Cc1ccc(OCCCOC2CCC2)cc1-c1ccnc(NC(=O)c2nnc(Cc3ccccc3)[nH]2)c1` [Example 81, 5-benzyl-N-(4-(5-(3-cyclobutoxypropoxy)-2-methylphenyl)pyridin-2-yl)-4H-1,2,4-triazole-3-carboxamide] came in with an IC50 of at most 100 nM.

For `C=CCOc1ccc(C)c(-c2ccnc(NC(=O)c3nnc(Cc4ccccc4)[nH]3)c2)c1` [Example 82, N-(4-(5-(allyloxy)-2-methylphenyl)pyridin-2-yl)-5-benzyl-4H-1,2,4-triazole-3-carboxamide], the IC50 fell in the range of 100 to 1000 nM.

Take `Cc1ccc(OCCCOC(C)C)cc1-c1ccnc(NC(=O)c2nnc(Cc3ccccc3)[nH]2)c1` [Example 83, 5-benzyl-N-(4-(5-(3-isopropoxypropoxy)-2-methylphenyl)pyridin-2-yl)-4H-1,2,4-triazole-3-carboxamide]: the IC50 was at most 100 nM.

For the molecule `Cc1ccc(OCCCN2CCCCC2=O)cc1-c1ccnc(NC(=O)c2nnc(Cc3ccccc3)[nH]2)c1` [Example 84], the IC50 was at most 100 nM.

For the molecule `COCCOCCOc1ccc(C)c(-c2ccnc(NC(=O)c3nnc(Cc4ccccc4)[nH]3)c2)c1` [Example 85, 5-benzyl-N-(4-(5-(2-(2-methoxyethoxy)ethoxy)-2-methylphenyl)pyridin-2-yl)-4H-1,2,4-triazole-3-carboxamide], the IC50 is at most 100 nM.

As for `Cc1ccc(OC2COC2)cc1-c1ccnc(NC(=O)c2nnc(Cc3ccccc3)[nH]2)c1` [Example 86, 5-benzyl-N-(4-(2-methyl-5-(oxetan-3-yloxy)phenyl)pyridin-2-yl)-4H-1,2,4-triazole-3-carboxamide], the IC50 is at most 100 nM.

In turn, `Cc1ccc(OCCC2CCOCC2)cc1-c1ccnc(NC(=O)c2nnc(Cc3ccccc3)[nH]2)c1` [Example 87, 5-benzyl-N-(4-(2-methyl-5-(2-(tetrahydro-2H-pyran-4-yl)ethoxy)phenyl)pyridin-2-yl)-4H-1,2,4-triazole-3-carboxamide] had an IC50 of at most 100 nM.

`Cc1ccc(OCCC2CCOCC2)cc1-c1ccnc(NC(=O)c2nnc(CC3CCCC3)[nH]2)c1` [Example 88, 5-(cyclopentylmethyl)-N-(4-(2-methyl-5-(2-(tetrahydro-2H-pyran-4-yl)ethoxy)phenyl)pyridin-2-yl)-4H-1,2,4-triazole-3-carboxamide] displayed an IC50 of at most 100 nM.

`Cc1ccc(OCCC2CCOCC2)cc1-c1ccnc(NC(=O)c2nnc(CC3CCCCC3)[nH]2)c1` [Example 89, 5-(cyclohexylmethyl)-N-(4-(2-methyl-5-(2-(tetrahydro-2H-pyran-4-yl)ethoxy)phenyl)pyridin-2-yl)-4H-1,2,4-triazole-3-carboxamide] registered an IC50 of at most 100 nM.

`Cc1ccc(OCCCC(C)C#N)cc1-c1ccnc(NC(=O)c2nnc(Cc3ccccc3)[nH]2)c1` (stereo not shown) [Example 90, 5-benzyl-N-(4-(5-((4-cyanopentyl)oxy)-2-methylphenyl)pyridin-2-yl)-4H-1,2,4-triazole-3-carboxamide] displayed a 50% inhibitory concentration (IC50) of at most 100 nM.

As usually defined, the IC50 is the midpoint of a concentration-inhibition curve. A lower IC50 goes with greater potency.

The record behind these values is patent publication US12435060B2, “Acylamino bridged heterocyclic compound, and composition and application thereof” (BEIJING SCITECH-MQ PHARMACEUTICALS LIMITED, priority 2019, dated 2025).
